Consider 13 compounds from PMC11003478, “Spiro heterocycles bearing piperidine moiety as potential scaffold for antileishmanial activity: synthesis, biological evaluation, and in silico studies” (Journal of Enzyme Inhibition and Medicinal Chemistry, 2022).

Where “and” joins values, the source holds several entries; their conditions need not be identical. Equal values may be shown once. Read-outs that look alike come from different tables or passages of the source.

Data set [1] concerns L. major promastigote form. Briefly: In vitro antileishmanial activity, promastigote form. Format: cell-based, Leishmania major. To be noted: read-out: Antipromastigotes IC50, µM ± SD. How it is done: All synthesised compounds were evaluated against L. major promastigote form.
(§1) We used both promastigote and amastigote forms of L. major strain for the in vitro evaluation. All experimental steps were carried out as reported earlier[35]^,[36]. The value of the compound concentration causing 50% inhibition (IC50) was calculated. The software employed is Graph Pad Prism 6 software (GraphPad Software, San Diego, CA, USA).

The subject of data set [2] is L. major axenic amastigote form. Briefly: In vitro antileishmanial activity, axenic amastigote form. Format: cell-based, Leishmania major. How it is done:
as §1

Data set [3] deals with L. major promastigote (folate pathway, DHFR and PTR1). Briefly: Reversal of antileishmanial activity by folic acid and folinic acid (folate pathway inhibition). Type of data set: cell-based, Leishmania major. To be noted: for Percentage survival, Folic acid 100 µM / Percentage survival, No Cpd added: test compound above its IC50 (trimethoprim 100 µM); for Percentage survival, No Cpd added: no folic or folinic acid; for Percentage survival, Folic acid 20µM: test compound above its IC50, folic acid 20µM; for Percentage survival, Folinic acid 20 µM: test compound above its IC50, folinic acid 20 µM; for Percentage survival, Folinic acid 100 µM: test compound above its IC50, folinic acid 100 µM. How it is done:
It is worthy to mention that folic acid competes for the active sites of both DHFR and PTR1 while folinic acid involves in DNA synthesis without any necessity to undergo activation.
This experiment was performed on the in vitro growth assay for the promastigote and based on the previously published methodology. All experimental steps were performed as reported earlier.

Data set [4] is described as follows: In vitro cytotoxicity testing on VERO cells. To be noted: African green monkey.
A further data set relates to VERO cells. Briefly: In vitro cytotoxicity testing on VERO cells. To be noted: for SI (selectivity index; SI = CC50/IC50): CC50 VERO cells / antileishmanial IC50; for CC50 (VERO cells) higher than IC50 (promastigotes): VERO cells versus promastigotes of leishmania parasite.
In the next data set the test system is Leishmania. Set-up: method as in PMID 34311084. To be noted: cited from earlier work.
In another data set the test system is promastigote. Further details: method as in PMID 27503653. To be noted: read-out: Anti-promastigote EC50; cited from earlier work.
In a further data set the test system is amastigote. Further details: method as in PMID 27503653. To be noted: read-out: Anti-amastigote EC50; cited from earlier work.
The subject of data set [5] is bisubunit DNA topoisomerase IB of L. donovani. Further details: method as in PMID 27503653. To be noted: cited from earlier work.
Where [6] appears, read: Leishmania major, L. major promastigote, 50% growth inhibition.
[7] abbreviates: Leishmania major, L. major axenic amastigote, 50% growth inhibition, read-out: Antiamastigote IC50, µM ± SD.
The mark [8] stands for this setting: VERO cells (African green monkey kidney cells).
The mark [9] stands for this setting: Leishmania major, read-out: Antiamastigote IC50, µM ± SD, L. major axenic amastigote, 50% growth inhibition.

In general, IC50 refers to the concentration that gives 50% inhibition. For orientation: melting point means the temperature, or range, at which the solid turns liquid. `c1ccc(CN2C(c3ccccc3)CC3(CC2c2ccccc2)NCCN3)cc1` (stereo not drawn) [Compound 13, 8-Benzyl-7,9-diphenyl-1,4,8-triazaspiro[4.5]decane] yielded a melting point of 209 to 211 °C. In [1] (setting [6]), the IC50 is 1.34 ± 0.14 µM. Moreover, the 50% inhibitory concentration (IC50) in data set [2] (setting [7]) is 3.24 ± 0.22 µM.

In turn, `N#CC1=C(N)N(c2ccccc2)C2(CNC1c1ccccc1)CC(c1ccccc1)N(Cc1ccccc1)C(c1ccccc1)C2` (stereo not drawn) [Compound 7a, 8-Amino-3-benzyl-2,4,7,10-tetraphenyl-3,7,11-triazaspiro[5.6]dodec-8-ene-9-carbonitrile] registered a melting point of over 300 °C.

As usually defined, the CC50 is the concentration that lowers cell viability or growth by half. In turn, `O=C1NC(=O)C2(CC(c3ccccc3)N(Cc3ccccc3)C(c3ccccc3)C2)N1c1ccccc1` (stereo not drawn) [Compound 8a, 8-Benzyl-1,7,9-triphenyl-1,3,8-triazaspiro[4.5]decane-2,4-dione] yielded a melting point of 188 to 190 °C. Further, in data set [1] (setting [6]), the IC50 turned out to be 1.12 ± 0.12 µM. For the same compound, the IC50 in data set [2] (Leishmania major, IC50 used for the selectivity index in Table 4, read-out: Antileishmanial IC50) turned out to be 0.895 µM. In addition, in data set [2] (setting [7]), the IC50 worked out at 0.89 µM. Further, in [3], the “Percentage survival, Folic acid 100 µM” value is 81%; the “Percentage survival, No Cpd added” value was 20%; the “Percentage survival, Folic acid 20µM” value is given as 72%; the “Percentage survival, Folinic acid 20 µM” value worked out at 76%. Also, in data set [3], the “Percentage survival, Folinic acid 100 µM” value is 87%. In data set [4] (setting [8]), the CC50 at 72 h is 62.5 µg/mL and 128 µM. Besides, in the data set with VERO cells, the “SI (selectivity index; SI = CC50/IC50)” value turned out to be 143.38 and the “CC50 (VERO cells) higher than IC50 (promastigotes)” value is listed as “at least 2 orders of magnitude”.

Regarding `N=C1NNC2(CC(c3ccccc3)N(Cc3ccccc3)C(c3ccccc3)C2)S1` (stereo not drawn) [Compound 12, 8-Benzyl-7,9-diphenyl-4-thia-1,2,8-triazaspiro[4.5]decan-3-imine], the IC50 in data set [1] (setting [6]) stood at 2.21 ± 0.22 µM; in [2] (setting [7]), 3.43 ± 0.14 µM.

As to `N=C1N(c2ccccc2)C(=O)N(c2ccccc2)C12CC(c1ccccc1)N(Cc1ccccc1)C(c1ccccc1)C2` (stereo not drawn) [Compound 11a, 8-Benzyl-4-imino-1,3,7,9-tetraphenyl-1,3,8-triazaspiro[4.5]decan-2-one], the melting point is 180 to 183 °C. Further, in data set [1] (setting [6]), the IC50 was 2.44 ± 0.22 µM. In addition, the half-inhibitory concentration (IC50) in data set [2] (setting [7]) was determined as 4.87 ± 0.32 µM.

`O=C1CNCC2(CC(c3ccccc3)N(Cc3ccccc3)C(c3ccccc3)C2)N1c1ccccc1` (stereo not drawn) [Compound 6a, 9-Benzyl-1,8,10-triphenyl-1,4,9-triazaspiro[5.5]undecan-2-one] showed a melting point of 150 to 153 °C. The IC50 in [1] (Leishmania major) is 4.42 ± 0.22 µM. Also, in data set [2] (setting [9]), the concentration for half-maximal inhibition (IC50) was found to be 4.67 ± 0.16 µM.

Turning to `CCCCCCCCCCCCCCCCOP(=O)([O-])OCC[N+](C)(C)C` [Miltefosine, reference compound], the IC50 in [1] (L. major promastigote, 50% growth inhibition) stood at 7.9 ± 0.28 µM; in data set [1] (setting [6]), 7.89 µM; in data set [2] (setting [7]) it was 8.08 ± 0.24 µM. In addition, in [4] (setting [8]), half-maximal cytotoxicity (CC50 at 72 h) was put at 99.7 µM. Further, the “SI (selectivity index; SI = CC50/IC50)” value with VERO cells stood at 12.6.

On to `O=C1CNC(=O)C2(CC(c3ccccc3)N(Cc3ccccc3)C(c3ccccc3)C2)N1c1ccccc1` (stereo not drawn) [Compound 9a, 9-Benzyl-1,8,10-triphenyl-1,4,9-triazaspiro[5.5]undecane-2,5-dione], for which the melting point was in the range of 201 to 203 °C. In addition, the concentration for half-maximal inhibition (IC50) in data set [1] (Leishmania major) is 0.41 ± 0.04 µM. The half-inhibitory concentration (IC50) in [2] (setting [9]) is 0.5 µM. Also, in [2] (Leishmania major, read-out: Antileishmanial IC50 µM, IC50 used for the selectivity index in Table 4), the IC50 amounted to 0.501 µM. In addition, the IC50 in data set [2] (read-out: Antiamastigote IC50, µM ± SD, L. major axenic amastigote, 50% growth inhibition) came to 0.501 ± 0.16 µM. In data set [3], the “Percentage survival, Folic acid 100 µM” value worked out at 84%; the “Percentage survival, No Cpd added” value is 26%; the “Percentage survival, Folic acid 20µM” value worked out at 76%; the “Percentage survival, Folinic acid 20 µM” value stood at 80%. Moreover, the “Percentage survival, Folinic acid 100 µM” value in [3] stood at 92%. Besides, in data set [4], the CC50 at 72 h is 125 µg/mL and 249 µM. Moreover, in the data set with VERO cells, the “SI (selectivity index; SI = CC50/IC50)” value amounted to 497.37 and the “CC50 (VERO cells) higher than IC50 (promastigotes)” value was “at least 2 orders of magnitude”.

Turning to `COc1cc(Cc2cnc(N)nc2N)cc(OC)c1OC` [Trimethoprim, reference compound], in data set [3], the “Percentage survival, Folic acid 100 µM” value was found to be 99% and the “Percentage survival, No Cpd added” value is reported as 72%.

Compound `O=C1NCC2(CC(c3ccccc3)N(Cc3ccccc3)C(c3ccccc3)C2)N1c1ccccc1` (stereo not drawn) [Compound 5a, 8-Benzyl-1,7,9-triphenyl-1,3,8-triazaspiro[4.5]decan-2-one] displayed a melting point of 128 to 130 °C. Besides, the 50% inhibitory concentration (IC50) in [1] (setting [6]) is 5.4 ± 0.24 µM. Besides, the concentration for half-maximal inhibition (IC50) in data set [2] (setting [7]) is 5.45 ± 0.22 µM.

For the compound `CN(C)c1ccc(/C=N/N2C(=O)C(C#N)=CC23c2ccccc2Nc2ccccc23)cc1` [C], the “Antileishmanial EC50” value with Leishmania was 0.97 µg/mL.

In general, EC50 refers to the concentration giving half of the maximal effect. With `COC(=O)C1CC2CCCN2C12C(=O)N(Cc1ccccc1)c1ccccc12` (stereo not drawn) [B], the EC50 in the data set with promastigote is 1.24 to 1.41 µM; in the data set on amastigote it was 0.53 to 0.9 µM. For the same compound, the “inhibition of bisubunit DNA topoisomerase IB” value in [5] was “catalytic inhibitor”.

With `N=C1N(c2ccccc2)C(=S)N(c2ccccc2)C12CC(c1ccccc1)N(Cc1ccccc1)C(c1ccccc1)C2` (stereo not drawn) [Compound 11b, 8-Benzyl-4-imino-1,3,7,9-tetraphenyl-1,3,8-triazaspiro[4.5]decane-2-thione], the melting point is 168 to 170 °C. In addition, in data set [1] (setting [6]), the IC50 is 3.27 ± 0.32 µM. Moreover, the IC50 in [2] (setting [7]) came to 4.89 ± 0.34 µM.
